Earlier results on 2 molecules are cited in patent publication US9079837B2, “Water-soluble fluorescent fullerene derivative, and preparation method thereof” (KOREA RESEARCH INSTITUTE OF BIOSCIENCE AND BIOTECHNOLOGY, priority 2010, dated 2015).

Each structure is given as a SMILES string. ≈ marks a conversion by molar mass, not a printed value. Counter-ions that a name gives are not always drawn. Like-named read-outs stand apart in the source and are kept apart here.

For data set [1] the following is noted: for fluorescence quantum yield: literature value (J. Am. Chem. Soc. 1993, 1994), room temperature.
For data set [2] the following is noted: water; Sivaraman et al., J. Org. Chem. 1992.

Take `C=C[C@H]1C[N@@]2CC[C@H]1C[C@H]2[C@H](O)c1ccnc2ccc(OC)cc12` [quinine sulfate]: the “fluorescence quantum yield of standard” value in data set [1] (standard value) is 55×10^−2.

Regarding `c12c3c4c5c1c1c6c7c2c2c8c3c3c9c4c4c%10c5c5c1c1c6c6c%11c7c2c2c7c8c3c3c8c9c4c4c9c%10c5c5c1c1c6c6c%11c2c2c7c3c3c8c4c4c9c5c1c1c6c2c3c41` [C60 fullerene, buckminster fullerene (C60)], the results for the fluorescence quantum yield entry in data set [1] (listed as fullerenes) and in data set [1] (listed as general fullerene) were “about 1×10^−4” and 1×10^−4, respectively. Moreover, the solubility in data set [2] was 1.3e-05 ng/mL (≈ 1.8e-05 nM).
